Assay results from ChEMBL document CHEMBL4339242, “Pyranoflavanones and Pyranochalcones from the Fruits of Amomum tsao-ko” (J Nat Prod, 2019).

Columns and labels:
RAW264.7 [1] = assay: Inhibition of lipopolysaccharide-induced nitric oxide production in mouse RAW264.7 cells by Griess reagent based assay; format: functional, cell-based
RAW264.7 [2] = assay: Toxicity in lipopolysaccharide-induced mouse RAW264.7 cells by MTT-based colorimetric assay; format: cell-based

IC50 (RAW264.7 [1]) [µM] | Structure (SMILES) | Activity (RAW264.7 [2])
10.6 | COc1cc2c(c3c1C(=O)C[C@H](c1ccccc1)O3)C=CC(C)(CCC=C(C)C)O2 (stereo partly specified) | Non-Toxic
16.2 | COc1cc2c(c3c1C(=O)C[C@H](c1ccc(O)cc1)O3)C=CC(C)(CCC=C(C)C)O2 (stereo partly specified) | Non-Toxic
41.5 | COc1cc2c(c3c1C(=O)C[C@H](c1ccc(O)cc1)O3)C=CC(C)(CC/C=C(\C)CCC=C(C)C)O2 (stereo partly specified) | Non-Toxic
26.1 | COc1cc2c(c3c1C(=O)C[C@H](c1ccccc1)O3)C=CC(C)(CC/C=C(\C)CCC=C(C)C)O2 (stereo partly specified) | Non-Toxic
39.2 | COc1cc2c(c3c1C(=O)C[C@@H](c1ccc(O)cc1)O3)C=CC(C)(CC/C=C(\C)CCC=C(C)C)O2 (stereo partly specified) | Non-Toxic
30.6 | COc1cc2c(c(O)c1C(=O)/C=C/c1ccc(O)cc1)C=CC(C)(CC/C=C(\C)CCC=C(C)C)O2 (stereo unspecified) | Non-Toxic
14 | COc1cc2c(c3c1C(=O)C[C@@H](c1ccc(O)cc1)O3)C=CC(C)(CCC=C(C)C)O2 (stereo partly specified) | Non-Toxic
13.5 | COc1cc2c(c3c1C(=O)C[C@@H](c1ccccc1)O3)C=CC(C)(CCC=C(C)C)O2 (stereo partly specified) | Non-Toxic
13.5 | COc1cc2c(c(O)c1C(=O)/C=C/c1ccccc1)C=CC(C)(CC/C=C(\C)CCC=C(C)C)O2 (stereo unspecified) | Non-Toxic
28.7 | COc1cc2c(c3c1C(=O)C[C@@H](c1ccccc1)O3)C=CC(C)(CC/C=C(\C)CCC=C(C)C)O2 (stereo partly specified) | Non-Toxic

Structure (SMILES) | IC50 (RAW264.7 [1]) [µM] | Activity (RAW264.7 [2])
N=C(N)NN [PIMAGEDINE] | 21.7 | –
